Columns and labels:
Sprague–Dawley rats = assay: DRL 72-s schedule of reinforcement in rats; assay type: in vivo, rat; conditions: for Lever Presses Mean / Reinforcers Mean: HSD rats DRL-72-s, raw data
Source text: Each chamber was enclosed in a melamine sound-attenuating cubicle. A white noise generator provided masking noise. The interior of each chamber consisted of three levers mounted on one wall with a house light mounted on the opposite wall. The house light was turned on at initiation of each test session and was turned off at the termination of each session. A water access port was situated next to the lever in the middle of the wall, wherein a reinforced response caused a clicker apparatus to sound paired with a dipper (0.02-ml cup) to be lifted from a water trough to an opening in the floor of the access port for 4 s.
Rats were initially trained under an alternative fixed ratio 1 water reinforcement schedule with a fixed 1-min time schedule for automatic reinforcement. Thus, each response was reinforced, with water also provided every minute in the absence of a response. […] Following acquisition of lever-pressing behavior, rats were trained daily on DRL 18-s sessions for ~2 weeks, following which they were advanced to DRL 72-s sessions. Responding on these sessions became stable after ~8 weeks. Experimental test sessions lasted for 1 h and were conducted 5 days/week during light hours.
(§1) Drugs were administered to the animals once or twice weekly with at least 1 week between subsequent drugs to minimize possible carryover effects. Drug treatments were administered on Tuesdays and Fridays. No treatments were administered on other test days. Wednesdays were control days. “Control” behavior was calculated as the pooled mean lever presses or reinforcers received during Wednesday sessions across all Wednesdays for the duration of each study. Performance was normalized to percent of control by dividing total responses (or reinforcers) for each drug or vehicle treatment by the mean number of responses (reinforcers) in the respective pooled control condition, multiplied by 100.
(§2) The data analyses were conducted on the raw response and reinforcement data. All behavioral data are expressed as the mean ± s.e.m. normalized to the control condition.

C57Bl/6 mice = assay: DRL 36-s schedule of reinforcement in wild-type mice; assay type: in vivo, mouse; conditions: for Lever Presses Mean / Reinforcers Mean: WT mice DRL-36-s, raw data
Source text: (§3) The levers in these chambers were mounted on one wall with an adjacent food magazine next to the lever in the middle of the wall. A reinforced response caused a clicker apparatus to activate and the pellet feeder to deposit one 45-mg sucrose pellet (BioServ, Frenchtown, NJ) into the food magazine. The house light, which was mounted on the ceiling, was turned on when the session began, remained on throughout the entire session, and was turned off at the end of the session. Each experimental chamber was enclosed in a melamine sound-attenuating cubicle and equipped with a white noise generator to provide masking noise.
(§4) Each mouse was initially trained under a variable time 60-s operant schedule for 5 days, followed by fixed ratio-1 ratio schedule for 5 days. After the mice had acquired lever-pressing behavior, they were trained during daily DRL 6-s sessions for ~1 week, then mice progressed through weekly ascending DRL requirements (12, 18, 24, 30 s) before moving to DRL 36-s sessions. […] Experimental sessions lasted for 45 min and were conducted 5 days/week during light hours.
as §1, §2

[1] = test system: mice lacking OX1 receptors; assay: DRL 36-s schedule of reinforcement in OX1 KO mice; assay type: in vivo, mouse; conditions: for Lever Presses Mean / Reinforcers Mean: OX1 KO mice DRL-36-s, raw data
Source text: (§5) Rats were acclimated to housing conditions for 4 days, followed by sham dosing once daily for 3 days, prior to the experiment. For DRL experiments, male Sprague–Dawley rats weighing between 300 and 350 g at the beginning of the behavioral experiments (Holtzman, Madison, WI) were housed in pairs. For mouse DRL studies, male C57Bl/6 mice (Taconic Farms, Hudson, NY) or mice lacking either OX1 or OX2 receptors, around 8 weeks of age, were obtained from private breeding colonies at Taconic Farms (Hudson, NY). OX1 and OX2 receptor knockout mice were generated using in vitro fertilization of embryos in C57Bl/6 female mice with sperm harvested from male mice obtained from the University of Texas Southwestern Medical Center (Dallas, TX), and backcrossed for at least 10 generations. Mice and rats were housed in separate colony rooms, which were maintained at 22°C and 60% relative humidity. For rat DRL experiments, water was available for a 20-min period following the daily behavioral session. Based on recommendations from the animal care and use committee, the mouse DRL assay was developed using food deprivation rather than water deprivation. […] All experiments were conducted during the light cycle and in compliance with the Guide for the Care and Use of Laboratory Animals under protocols approved by a local animal care and use committee.
as §3, §4, §1, §2

[2] = test system: mice lacking OX2 receptors; assay: DRL 36-s schedule of reinforcement in OX2 KO mice; assay type: in vivo, mouse; conditions: for Lever Presses Mean / Reinforcers Mean: OX2 KO mice DRL-36-s, raw data
Source text: as §5, §3, §4, §1, §2

human OX2 receptors = molecular target: T1, human OX2 receptors (Homo sapiens, UniProt O43614); assay: Intracellular calcium mobilization (FLIPR), antagonist mode vs EC70 orexin-A; assay type: cell-based; parameters: expressed in transfected cells; conditions: HEK293 cells, mean ± s.e.m. (n); for Kb: read-out: Functional antagonist activity, Kb hOX2
T1 sequence (O43614 1-444): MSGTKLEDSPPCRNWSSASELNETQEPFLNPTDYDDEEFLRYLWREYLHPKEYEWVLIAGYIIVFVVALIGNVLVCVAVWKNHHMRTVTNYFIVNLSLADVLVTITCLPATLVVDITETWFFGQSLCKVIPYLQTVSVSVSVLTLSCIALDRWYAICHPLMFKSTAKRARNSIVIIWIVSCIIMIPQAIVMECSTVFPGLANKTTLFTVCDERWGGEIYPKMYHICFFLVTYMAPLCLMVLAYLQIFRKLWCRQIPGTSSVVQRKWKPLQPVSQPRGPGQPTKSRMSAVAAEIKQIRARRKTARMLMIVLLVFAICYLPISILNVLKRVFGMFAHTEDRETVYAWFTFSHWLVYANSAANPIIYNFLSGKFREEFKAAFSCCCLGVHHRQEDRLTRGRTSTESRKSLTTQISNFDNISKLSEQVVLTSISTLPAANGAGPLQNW

[3] = C57Bl/6 mice DRL-36-s, significant at 100 mg/kg (Figure 5B legend)
[4] = dose 100 mg/kg PO, listed as almorexant inactive, 100 mg/kg
[5] = dose 100 mg/kg, listed as almorexant inactive
[6] = mice lacking OX1 receptors, 100 mg/kg

`CNC(=O)[C@@H](c1ccccc1)N1CCc2cc(OC)c(OC)cc2[C@@H]1CCc1ccc(C(F)(F)F)cc1` [Almorexant (S)] was tested. Which “Lever Presses Mean” value (Sprague–Dawley rats; dose 30 mg/kg PO) did it give?
The value was 42.73.

And the “Reinforcers Mean” value (Sprague–Dawley rats; dose 30 mg/kg PO)?
The value was 13.55.

What about the “Lever Presses Mean” value (Sprague–Dawley rats; dose 60 mg/kg PO) of the same molecule?
Its value is 51.91.

What about the “Reinforcers Mean” value (Sprague–Dawley rats; dose 60 mg/kg PO) of the same molecule?
Its value is 17.91.

And the “Lever Presses Mean” value (Sprague–Dawley rats; dose 100 mg/kg PO)?
The value was 45.09.

What about the “Reinforcers Mean” value (Sprague–Dawley rats; dose 100 mg/kg PO) of the same molecule?
Its value is 19.55.

What about the “Reduction in lever presses emitted, in words” value (Sprague–Dawley rats; rats DRL-72-s, PO, 30–100 mg/kg) of the same molecule?
Its value is “did not reach statistical significance”.

What about the “Reinforcers received, effect in words” value (Sprague–Dawley rats; rats DRL-72-s, PO, significant at 100 mg/kg (Figure 5A legend)) of the same molecule?
Its value is “significant increase”.

What about the “Doses with antidepressant-like efficacy in the rat DRL-72 sec model” value (Sprague–Dawley rats; reduced lever presses with increased reinforcers) of the same molecule?
Its value is 100 mg/kg.

And the Lever presses emitted (C57Bl/6 mice; [3])?
The Lever presses emitted was 47 % of control.

What about the Reinforcers received (C57Bl/6 mice; [3]) of the same molecule?
Its Reinforcers received is > 400 % of control.

And the “Lever Presses Mean” value (C57Bl/6 mice; dose 10 mg/kg)?
The value was 174.25.

And the “Reinforcers Mean” value (C57Bl/6 mice; dose 10 mg/kg)?
Its value is 14.00.

What about the “Lever Presses Mean” value (C57Bl/6 mice; dose 20 mg/kg) of the same molecule?
Its value is 161.13.

What about the “Reinforcers Mean” value (C57Bl/6 mice; dose 20 mg/kg) of the same molecule?
The value was 15.50.

And the “Lever Presses Mean” value (C57Bl/6 mice; dose 40 mg/kg)?
The value was 172.38.

And the “Reinforcers Mean” value (C57Bl/6 mice; dose 40 mg/kg)?
Its value is 20.25.

And the “Lever Presses Mean” value (C57Bl/6 mice; dose 100 mg/kg)?
Its value is 114.88.

What about the “Reinforcers Mean” value (C57Bl/6 mice; dose 100 mg/kg) of the same molecule?
Its value is 27.13.

And the “Lever Presses Mean” value ([1]; dose 10 mg/kg)?
Its value is 111.38.

And the “Reinforcers Mean” value ([1]; dose 10 mg/kg)?
Its value is 33.00.

What about the “Lever Presses Mean” value ([1]; dose 20 mg/kg) of the same molecule?
Its value is 124.75.

What about the “Reinforcers Mean” value ([1]; dose 20 mg/kg) of the same molecule?
Its value is 30.50.

And the “Lever Presses Mean” value ([1]; dose 40 mg/kg)?
The value was 108.25.

What about the “Reinforcers Mean” value ([1]; dose 40 mg/kg) of the same molecule?
Its value is 34.63.

What about the “Lever Presses Mean” value ([1]; dose 60 mg/kg) of the same molecule?
Its value is 110.13.

And the “Reinforcers Mean” value ([1]; dose 60 mg/kg)?
The value was 29.13.

And the “Lever presses emitted, effect in words” value ([1]; mice lacking OX1 receptors, all doses 10–60 mg/kg)?
Its value is “reduced the number of lever presses emitted”.

And the “Reinforcers received, effect in words” value ([1]; mice lacking OX1 receptors, at 10 and 40 mg/kg)?
The value was “significant increase”.

And the “Lever Presses Mean” value ([2]; dose 20 mg/kg)?
The value was 162.63.

And the “Reinforcers Mean” value ([2]; dose 20 mg/kg)?
The value was 28.75.

What about the “Lever Presses Mean” value ([2]; dose 40 mg/kg) of the same molecule?
The value was 179.25.

And the “Reinforcers Mean” value ([2]; dose 40 mg/kg)?
Its value is 20.50.

What about the “Lever Presses Mean” value ([2]; dose 100 mg/kg) of the same molecule?
The value was 158.13.

And the “Reinforcers Mean” value ([2]; dose 100 mg/kg)?
The value was 24.75.

And the “Antidepressant-like effect in DRL, in words” value ([2]; mice lacking OX2 receptors, up to 100 mg/kg)?
Its value is “completely abolished”.

What about the Kb (human OX2 receptors) of the same molecule?
Its Kb is 1.73 ± 0.35 nM.

For `CNC(=O)[C@@H](c1ccccc1)N1CCc2cc(OC)c(OC)cc2[C@@H]1CCc1ccc(C(F)(F)F)cc1` [Almorexant (R)], which “Lever Presses Mean” value (Sprague–Dawley rats; [4]) is on record?
The value was 64.73.

What about the “Reinforcers Mean” value (Sprague–Dawley rats; [4]) of the same molecule?
The value was 15.27.

What about the “Effect on DRL behavior, in words” value (Sprague–Dawley rats; rats DRL-72-s, 100 mg/kg) of the same molecule?
The value was “no effect on behavior”.

And the “Effect on DRL behavior, in words” value (C57Bl/6 mice; C57Bl/6 mice DRL-36-s, 100 mg/kg)?
Its value is “no significant effects on behavior”.

What about the “Lever Presses Mean” value (C57Bl/6 mice; [5]) of the same molecule?
Its value is 233.00.

And the “Reinforcers Mean” value (C57Bl/6 mice; [5])?
The value was 11.00.

What about the “Lever Presses Mean” value ([1]; dose 100 mg/kg) of the same molecule?
Its value is 103.75.

And the “Reinforcers Mean” value ([1]; dose 100 mg/kg)?
The value was 28.88.

What about the “Lever pressing, effect in words” value [1, 6] of the same molecule?
The value was “significant decrease”.

And the “Reinforcers received, effect in words” value [1, 6]?
Its value is “significant increases”.

And the “Lever Presses Mean” value [2, 5]?
Its value is 112.88.

And the “Reinforcers Mean” value [2, 5]?
Its value is 25.13.

And the “Reinforcers received, effect in words” value ([2]; mice lacking OX2 receptors, 100 mg/kg)?
Its value is “did not significantly affect”.

What about the Lever presses emitted ([2]; mice lacking OX2 receptors, DRL-36-s, 100 mg/kg) of the same molecule?
The Lever presses emitted was 65 % of control.

And the “Functional antagonist activity, Kb hOX2” value (human OX2 receptors)?
The value was “inactive”.

What about the Kb (human OX2 receptors) of the same molecule?
Its Kb is over 10000 nM.
